From PubChem BioAssay (NCI)
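Each compound was tested at five concentrations against cells in 96-well plates for 48 hours. At the GI50, growth is halved. TGI marks complete inhibition of growth.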

What was measured:
Assay in all cases: NCI anticancer screen, dose series, 48 h
[1] = test system: M14 melanoma
[2] = test system: SK-MEL-28 melanoma
[3] = test system: TK-10 renal
[4] = test system: RPMI-8226 leukemia
[5] = test system: SK-MEL-5 melanoma
[6] = test system: LOX IMVI melanoma
[7] = test system: MDA-MB-231 breast
[8] = test system: UO-31 renal
[9] = test system: SNB-75 CNS
[10] = test system: EKVX NSCLC
[11] = test system: DU-145 prostate
[12] = test system: HCT-116 colon
[13] = test system: HL-60(TB) leukemia
[14] = test system: HCT-15 colon
[15] = test system: MDA-MB-435
[16] = test system: UACC-257 melanoma
[17] = test system: MCF7 breast
[18] = test system: SN12C renal
[19] = test system: U251 CNS
[20] = test system: SF-539 CNS
[21] = test system: NCI-H522 lung
[22] = test system: K-562 leukemia
[23] = test system: UACC-62 melanoma
[24] = test system: HT29 colon
[25] = test system: RXF 393 renal
[26] = test system: KM12 colon
[27] = test system: HS 578T breast
[28] = test system: MOLT-4 leukemia
[29] = test system: CAKI-1 renal
[30] = test system: OVCAR-8 ovarian
[31] = test system: SR leukemia
[32] = test system: SF-295 CNS
[33] = test system: NCI/ADR-RES ovarian
[34] = test system: MALME-3M melanoma
[35] = test system: A549 NSCLC
[36] = test system: COLO 205 colon
[37] = test system: SNB-19 CNS
[38] = test system: HOP-62 NSCLC
[39] = test system: A498 renal
[40] = test system: NCI-H226 lung
[41] = test system: SW-620 colon
[42] = test system: IGROV1 ovarian
[43] = test system: SF-268 CNS
[44] = test system: OVCAR-5 ovarian
[45] = test system: OVCAR-4 ovarian
[46] = test system: SK-OV-3 ovarian
[47] = test system: T-47D breast
[48] = test system: CCRF-CEM leukemia
[49] = test system: PC-3 prostate
[50] = test system: SK-MEL-2 melanoma
[51] = test system: BT-549 breast
[52] = test system: 786-0 renal
[53] = test system: ACHN renal
[54] = test system: HCC-2998 colon
[55] = test system: NCI-H460 lung
[56] = test system: HOP-92 NSCLC

For `CNC(=O)c1cc(N2CCc3cc(NC(=O)Nc4ccc(N5CCOCC5)c(C(F)(F)F)c4)ccc32)ccn1`, the GI50 [1] was 1410 nM, the TGI [1] was 25000 nM and the GI50 [2] was 3520 nM. The TGI [2] was > 33300 nM, the GI50 [3] was 11300 nM and the TGI [3] was > 33300 nM. The GI50 [4] was 614 nM, the TGI [4] was 2500 nM and the GI50 [5] was 1100 nM. It also gave a TGI [5] of 4720 nM, a GI50 [6] of 1510 nM and a TGI [6] of 17900 nM. The GI50 [7] was 2470 nM, the TGI [7] was > 33300 nM and the GI50 [8] was 1210 nM. For the same molecule, the TGI [8] was 25100 nM, the GI50 [9] was 1140 nM and the TGI [9] was 13800 nM. For the same molecule, the GI50 [10] was 4160 nM, the TGI [10] was > 33300 nM and the GI50 [11] was 3040 nM. For the same molecule, the TGI [11] was > 33300 nM, the GI50 [12] was 1170 nM and the TGI [12] was 10500 nM. For the same molecule, the GI50 [13] was 904 nM, the TGI [13] was 5500 nM and the GI50 [14] was 1170 nM. The TGI [14] was > 33300 nM, the GI50 [15] was 2710 nM and the TGI [15] was > 33300 nM. For the same molecule, the GI50 [16] was 3230 nM, the TGI [16] was > 33300 nM and the GI50 [17] was 1560 nM. The TGI [17] was > 33300 nM, the GI50 [18] was 1260 nM and the TGI [18] was > 33300 nM. For the same molecule, the GI50 [19] was 1320 nM, the TGI [19] was > 33300 nM and the GI50 [20] was 600 nM. For the same molecule, the TGI [20] was > 33300 nM, the GI50 [21] was 1290 nM and the TGI [21] was 16300 nM. The GI50 [22] was 996 nM, the TGI [22] was > 33300 nM and the GI50 [23] was 776 nM. The TGI [23] was 1970 nM, the GI50 [24] was 1640 nM and the TGI [24] was > 33300 nM. It also gave a GI50 [25] of 775 nM, a TGI [25] of 2110 nM and a GI50 [26] of 293 nM. The TGI [26] was > 33300 nM, the GI50 [27] was 779 nM and the TGI [27] was 2940 nM. For the same molecule, the GI50 [28] was 1210 nM, the TGI [28] was 31100 nM and the GI50 [29] was 3840 nM. The TGI [29] was > 33300 nM, the GI50 [30] was 1800 nM and the TGI [30] was > 33300 nM. The GI50 [31] was 946 nM, the TGI [31] was > 33300 nM and the GI50 [32] was 689 nM. For the same molecule, the TGI [32] was 2550 nM, the GI50 [33] was 2160 nM and the TGI [33] was > 33300 nM. For the same molecule, the GI50 [34] was 2130 nM, the TGI [34] was > 33300 nM and the GI50 [35] was 1620 nM. The TGI [35] was > 33300 nM, the GI50 [36] was 1150 nM and the TGI [36] was 22000 nM. The GI50 [37] was 3870 nM, the TGI [37] was > 33300 nM and the GI50 [38] was 2560 nM. It also gave a TGI [38] of 25000 nM, a GI50 [39] of 1690 nM and a TGI [39] of 25100 nM. For the same molecule, the GI50 [40] was 1330 nM, the TGI [40] was > 33300 nM and the GI50 [41] was 2340 nM. For the same molecule, the TGI [41] was > 33300 nM, the GI50 [42] was 1430 nM and the TGI [42] was > 33300 nM. For the same molecule, the GI50 [43] was 5700 nM, the TGI [43] was > 33300 nM and the GI50 [44] was 4950 nM. The TGI [44] was > 33300 nM, the GI50 [45] was 1690 nM and the TGI [45] was > 33300 nM. The GI50 [46] was 7160 nM, the TGI [46] was > 33300 nM and the GI50 [47] was 908 nM. The TGI [47] was 9030 nM, the GI50 [48] was 1470 nM and the TGI [48] was > 33300 nM. The GI50 [49] was 1170 nM, the TGI [49] was > 33300 nM and the GI50 [50] was 1130 nM. It also gave a TGI [50] of 5730 nM, a GI50 [51] of 1040 nM and a TGI [51] of 2750 nM. The GI50 [52] was 1440 nM, the TGI [52] was 18900 nM and the GI50 [53] was 1900 nM. The TGI [53] was > 33300 nM, the GI50 [54] was 2510 nM and the TGI [54] was > 33300 nM. For the same molecule, the GI50 [55] was 1210 nM, the TGI [55] was 27300 nM and the GI50 [56] was 899 nM. For the same molecule, the TGI [56] was 5540 nM.
